Several values for one entry are separate records, joined by “and”; a condition that tells them apart may be missing. Equal values may be shown once.
System: 935938-334-R-J1-PDC spheroids with HUVEC/MSC, viability
Experiment: Anticancer human tumor 935938-334-R-J1-PDC patient-derived small intestine adenocarcinoma cell line growth inhibition [PI3K]
Details: for viability, T/C: stronger effect = lower value
Procedure, shortened: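 Targeted small molecules plus PI3K inhibitors, half-log dose series from Cmax (default top 10 microM), were applied to heterotypic spheroids of cancer cells with HUVEC and MSCs. Viability indicated growth inhibition.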

[1] = curve of first compound, second compound 0.00316 µM
[2] = curve of first compound, second compound 0.01 µM
[3] = curve of first compound, second compound 0.0316 µM
[4] = curve of first compound, second compound 0.1 µM
[5] = curve of first compound, second compound 0.316 µM
[6] = curve of first compound, second compound 1 µM
[7] = second compound 0.00316 µM, first compound 0.000316 µM
[8] = second compound 0.00316 µM, first compound 0.001 µM
[9] = second compound 0.00316 µM, first compound 0.00316 µM
[10] = second compound 0.00316 µM, first compound 0.01 µM
[11] = second compound 0.00316 µM, first compound 0.0316 µM
[12] = second compound 0.00316 µM, first compound 0.1 µM
[13] = second compound 0.01 µM, first compound 0.000316 µM
[14] = second compound 0.01 µM, first compound 0.001 µM
[15] = second compound 0.01 µM, first compound 0.00316 µM
[16] = second compound 0.01 µM, first compound 0.01 µM
[17] = second compound 0.01 µM, first compound 0.0316 µM
[18] = second compound 0.01 µM, first compound 0.1 µM
[19] = second compound 0.0316 µM, first compound 0.000316 µM
[20] = second compound 0.0316 µM, first compound 0.001 µM
[21] = second compound 0.0316 µM, first compound 0.00316 µM
[22] = second compound 0.0316 µM, first compound 0.01 µM
[23] = second compound 0.0316 µM, first compound 0.0316 µM
[24] = second compound 0.0316 µM, first compound 0.1 µM
[25] = second compound 0.1 µM, first compound 0.000316 µM
[26] = second compound 0.1 µM, first compound 0.001 µM
[27] = second compound 0.1 µM, first compound 0.00316 µM
[28] = second compound 0.1 µM, first compound 0.01 µM
[29] = second compound 0.1 µM, first compound 0.0316 µM
[30] = second compound 0.1 µM, first compound 0.1 µM
[31] = second compound 0.316 µM, first compound 0.000316 µM
[32] = second compound 0.316 µM, first compound 0.001 µM
[33] = second compound 0.316 µM, first compound 0.00316 µM
[34] = second compound 0.316 µM, first compound 0.01 µM
[35] = second compound 0.316 µM, first compound 0.0316 µM
[36] = second compound 0.316 µM, first compound 0.1 µM
[37] = second compound 1 µM, first compound 0.000316 µM
[38] = second compound 1 µM, first compound 0.001 µM
[39] = second compound 1 µM, first compound 0.00316 µM
[40] = second compound 1 µM, first compound 0.01 µM
[41] = second compound 1 µM, first compound 0.0316 µM
[42] = second compound 1 µM, first compound 0.1 µM
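Note: compound exposure lasted seven days before viability was read.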
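Throughout, for viability, T/C: percent of vehicle DMSO treated spheroid viability so 100% = untreated.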

## Cn1ncnc1[C@H]1c2n[nH]c(=O)c3cc(F)cc(c23)N[C@@H]1c1ccc(F)cc1 + COc1c(OCCCN2CCOCC2)ccc2c3n(c(=NC(=O)c4cnc(N)nc4)nc12)CCN3
[1]
  IC50: > 100 nM
[2]
  IC50: > 100 nM
[3]
  IC50: > 100 nM
[4]
  IC50: 8.29 nM
[5]
  IC50: < 0.316 nM
[6]
  IC50: < 0.316 nM
[7]
  viability, T/C: 90.8%
[8]
  viability, T/C: 96.6%
[9]
  viability, T/C: 103%
[10]
  viability, T/C: 83.3%
[11]
  viability, T/C: 96.2%
[12]
  viability, T/C: 92.8%
[13]
  viability, T/C: 109%
[14]
  viability, T/C: 106%
[15]
  viability, T/C: 92.3%
[16]
  viability, T/C: 82.2%
[17]
  viability, T/C: 92.4%
[18]
  viability, T/C: 77.4%
[19]
  viability, T/C: 77%
[20]
  viability, T/C: 65.6%
[21]
  viability, T/C: 90.2%
[22]
  viability, T/C: 82.2%
[23]
  viability, T/C: 73.8%
[24]
  viability, T/C: 76%
[25]
  viability, T/C: 56%
[26]
  viability, T/C: 52%
[27]
  viability, T/C: 57.5%
[28]
  viability, T/C: 47.2%
[29]
  viability, T/C: 43.5%
[30]
  viability, T/C: 50.2%
[31]
  viability, T/C: 31.2%
[32]
  viability, T/C: 35.3%
[33]
  viability, T/C: 34.5%
[34]
  viability, T/C: 34.6%
[35]
  viability, T/C: 34.2%
[36]
  viability, T/C: 35.4%
[37]
  viability, T/C: 33.1%
[38]
  viability, T/C: 40.3%
[39]
  viability, T/C: 37.5%
[40]
  viability, T/C: 32.7%
[41]
  viability, T/C: 36%
[42]
  viability, T/C: 35.1%

## CC(=O)c1c(C)c2cnc(Nc3ccc(N4CCNCC4)cn3)nc2n(C2CCCC2)c1=O + COc1c(OCCCN2CCOCC2)ccc2c3n(c(=NC(=O)c4cnc(N)nc4)nc12)CCN3
[1]
  IC50: > 100 nM
[2]
  IC50: > 100 nM
[3]
  IC50: > 100 nM
[4]
  IC50: 0.621 nM
[5]
  IC50: < 0.316 nM
[6]
  IC50: < 0.316 nM
[7]
  viability, T/C: 94.8%
[8]
  viability, T/C: 98.7%
[9]
  viability, T/C: 80.2%
[10]
  viability, T/C: 113%
[11]
  viability, T/C: 110%
[12]
  viability, T/C: 57.4%
[13]
  viability, T/C: 99.7%
[14]
  viability, T/C: 90.8%
[15]
  viability, T/C: 80.4%
[16]
  viability, T/C: 90.1%
[17]
  viability, T/C: 78.4%
[18]
  viability, T/C: 56.3%
[19]
  viability, T/C: 81.8%
[20]
  viability, T/C: 74.7%
[21]
  viability, T/C: 68.3%
[22]
  viability, T/C: 63.2%
[23]
  viability, T/C: 63.8%
[24]
  viability, T/C: 48.6%
[25]
  viability, T/C: 54.4%
[26]
  viability, T/C: 48.6%
[27]
  viability, T/C: 37.9%
[28]
  viability, T/C: 42%
[29]
  viability, T/C: 39.7%
[30]
  viability, T/C: 35.6%
[31]
  viability, T/C: 39.9%
[32]
  viability, T/C: 32.6%
[33]
  viability, T/C: 29.2%
[34]
  viability, T/C: 33.3%
[35]
  viability, T/C: 27.9%
[36]
  viability, T/C: 35.3%
[37]
  viability, T/C: 38.4%
[38]
  viability, T/C: 35.2%
[39]
  viability, T/C: 35.3%
[40]
  viability, T/C: 39.6%
[41]
  viability, T/C: 30.2%
[42]
  viability, T/C: 31%

## CCCS(=O)(=O)Nc1ccc(F)c(C(=O)c2c[nH]c3ncc(-c4ccc(Cl)cc4)cc23)c1F + CC(Nc1ncnc2nc[nH]c12)c1cc2cccc(Cl)c2c(=O)n1-c1ccccc1
[3]
  IC50: 6710 nM
[4]
  IC50: 6810 nM
[5]
  IC50: 6860 nM
[6]
  IC50: 6770 nM
Curve of first compound, second compound 3.16 µM
  IC50: 6380 nM
Curve of first compound, second compound 10 µM
  IC50: 5620 nM
[23]
  viability, T/C: 107%
[24]
  viability, T/C: 100%
Second compound 0.0316 µM, first compound 0.316 µM
  viability, T/C: 140%
Second compound 0.0316 µM, first compound 1 µM
  viability, T/C: 102%
Second compound 0.0316 µM, first compound 3.16 µM
  viability, T/C: 95.2%
Second compound 0.0316 µM, first compound 10 µM
  viability, T/C: 26.3%
[29]
  viability, T/C: 88.2%
[30]
  viability, T/C: 98.7%
Second compound 0.1 µM, first compound 0.316 µM
  viability, T/C: 95.9%
Second compound 0.1 µM, first compound 1 µM
  viability, T/C: 94%
Second compound 0.1 µM, first compound 3.16 µM
  viability, T/C: 108%
Second compound 0.1 µM, first compound 10 µM
  viability, T/C: 26.5%
[35]
  viability, T/C: 99.8%
[36]
  viability, T/C: 94%
Second compound 0.316 µM, first compound 0.316 µM
  viability, T/C: 111%
Second compound 0.316 µM, first compound 1 µM
  viability, T/C: 110%
Second compound 0.316 µM, first compound 3.16 µM
  viability, T/C: 96.3%
Second compound 0.316 µM, first compound 10 µM
  viability, T/C: 27%
[41]
  viability, T/C: 97%
[42]
  viability, T/C: 105%
Second compound 1 µM, first compound 0.316 µM
  viability, T/C: 109%
Second compound 1 µM, first compound 1 µM
  viability, T/C: 118%
Second compound 1 µM, first compound 3.16 µM
  viability, T/C: 91.6%
Second compound 1 µM, first compound 10 µM
  viability, T/C: 28.5%
Second compound 3.16 µM, first compound 0.0316 µM
  viability, T/C: 109%
Second compound 3.16 µM, first compound 0.1 µM
  viability, T/C: 91.6%
Second compound 3.16 µM, first compound 0.316 µM
  viability, T/C: 99.9%
Second compound 3.16 µM, first compound 1 µM
  viability, T/C: 117%
Second compound 3.16 µM, first compound 3.16 µM
  viability, T/C: 84.3%
Second compound 3.16 µM, first compound 10 µM
  viability, T/C: 28%
Second compound 10 µM, first compound 0.0316 µM
  viability, T/C: 91.2%
Second compound 10 µM, first compound 0.1 µM
  viability, T/C: 86.5%
Second compound 10 µM, first compound 0.316 µM
  viability, T/C: 91.6%
Second compound 10 µM, first compound 1 µM
  viability, T/C: 97%
Second compound 10 µM, first compound 3.16 µM
  viability, T/C: 78.1%
Second compound 10 µM, first compound 10 µM
  viability, T/C: 21.9%

## CC1(C)CCC(Nc2ncc(C(F)(F)F)c(-c3c[nH]c4c(P(C)(C)=O)c(C#N)ccc34)n2)CN1 (stereo not drawn)
Compound 0.0316 µM
  viability, T/C: 43.3% [middle of 4 runs]
Compound 0.1 µM
  viability, T/C: 39.1% [middle of 4 runs]
Compound 0.316 µM
  viability, T/C: 34.6% [middle of 4 runs]
Compound 1 µM
  viability, T/C: 38.5% and 38.1% and 35.8% (2×)
Compound 3.16 µM
  viability, T/C: 35.1% [middle of 4 runs]
Compound 10 µM
  viability, T/C: 7.76% [middle of 4 runs]
Curve of compound
  IC50: < 31.6 nM
